Legend:
[1] = biological target: T1, Glutamate NMDA receptor (Rattus norvegicus) (UniProt P35439+Q00959+Q00960+Q00961+Q62645+Q8VHN2+Q9R1M7); test: Displacement of [3H]glycine from NMDA receptor of rat cortical membranes; assay type: cell membranes; parameters: concentration or dose not given beside the values; conditions: Membrane, concentration not given here
[2] = biological target: Glutamate NMDA receptor; test: Displacement of [3H]-glycine from NMDA receptor of rat cortical membranes; assay type: cell membranes, Membrane
[3] = biological target: Glutamate receptor ionotropic, AMPA (Rattus norvegicus) (UniProt P19491+P19492+P19493+P19490); test: Displacement of [3H]AMPA from AMPA receptor of rat cortical membranes; assay type: cell membranes; parameters: concentration or dose not given beside the values; conditions: Membrane, concentration not given here
[4] = biological target: T1, Glutamate NMDA receptor (Rattus norvegicus); test: Compound was evaluated for its ability to displace [3H]-glycine from rat cortical membranes at concentration 10 uM for NMDA receptor

Structure (SMILES)	inhibition [1] [%]	IC50 [2] [µM]	inhibition [3] [%]	other results
O=c1[nH]c2ccccc2cc1O	29			
CNC(=O)C(=O)c1c(O)c(O)nc2cc(Cl)cc(Cl)c12		3.8	15	
Oc1nc2cc(Cl)cc(Cl)c2c(Br)c1O		2.8	41	
O=C(Nc1ccccc1)C(=O)c1c(O)c(O)nc2cc(Cl)cc(Cl)c12		0.76	40	
Oc1cc2c(Cl)cc(Cl)cc2nc1O	29			
CCOC(=O)c1c(O)c(O)nc2cc(Cl)cc(Cl)c12		0.062		
Oc1cc2c(Cl)c(Cl)ccc2nc1O	0			
CCOC(=O)c1c(OC)c(O)nc2cc(Cl)c(Cl)cc12				inhibition [4]: 0%
CCOC(=O)c1c(OC)c(O)nc2ccccc12				inhibition [4]: 0%
Oc1nc2ccc(Cl)c(Cl)c2c(Cl)c1O	20			
Oc1nc2cc(Cl)cc(Cl)c2c(Cl)c1O		4.5	48	
Oc1nc2ccc(Cl)c(Cl)c2c(Br)c1O	23			
Oc1nc2ccccc2c(Br)c1O	59			
CCOC(=O)C(=O)c1c(O)c(O)nc2cc(Cl)cc(Cl)c12		0.029	56	
COC(=O)C(=O)c1c(O)c(O)nc2cc(Cl)cc(Cl)c12		0.15	28	
CCOC(=O)c1c(O)c(O)nc2cc(Cl)c(Cl)cc12	43			
CCOC(=O)c1c(OC)c(O)nc2cc(Cl)cc(Cl)c12				inhibition [4]: 5%
O=C(O)C(=O)c1c(O)c(O)nc2cc(Cl)cc(Cl)c12		0.52	63	

Continued, in another order:

inhibition [1] [%]	IC50 [2] [µM]	inhibition [3] [%]	Structure (SMILES)	other results
40			O=C(NCc1ccccc1)c1c(O)c(O)nc2ccccc12	
60			O=C(O)c1c(O)c(O)nc2ccccc12	
	3	2.6	COC(=O)C(=O)c1c(O)c(O)nc2ccccc12	
11			CCOC(=O)/C=C/c1c(O)c(O)nc2ccccc12	
	1.8	31.9	O=C(O)C(=O)c1c(O)c(O)nc2ccccc12	
38			CCOC(=O)c1c(O)c(O)nc2ccc(Cl)c(Cl)c12	
	12		CCOC(=O)C(=O)c1c(O)c(O)nc2ccccc12	
	1.4		Oc1nc2ccccc2c(Cl)c1O	
25			O=C(O)CCc1c(O)c(O)nc2ccccc12	
50			CCOC(=O)c1c(O)c(O)nc2ccccc12	
0			COc1ccc(NC(=O)c2c(O)c(O)nc3ccccc23)cc1OC	
43			O=C(O)/C=C/c1c(O)c(O)nc2ccccc12	

— ChEMBL document CHEMBL1128982, “3-Hydroxy-quinolin-2-ones: Inhibitors of [3H]-glycine binding to the site associated with the NMDA receptor” (Bioorg Med Chem Lett, 1996)
